Measured values from patent publication US10722575B2, “Use of 1,3-diphenylprop-2-en-1-one derivatives for treating liver disorders” (GENFIT, priority 2009, dated 2020).

Experiments:
[1] = test system: hApoE2 KI mice; assay: hApoE2 KI mice on Western diet, 2 weeks, histological scores of liver steatosis and intralobular inflammation; format: in vivo; conditions: 30 mg/kg/day
Procedure: (§1) Animals were fed a Western diet (20% saturated fat and 0.2% cholesterol, Harlan Teklad TD88137) during 2 weeks in the first study, that involved the daily administration of Cpd 29 (at 30 mg/kg/day by oral gavage), and during 6 weeks in the second study, that involved the daily administration of Compound 1 of WO 2007147879 (Cpd1, at 30 mg/kg/day by oral gavage). Control animals were treated with vehicle only (Carboxymethlycellulose 1%+Tween-80 0.1%). Animals had access to food and water ad libitum.
At the end of the studies, the animals were weighed and sacrificed under anesthesia. Blood was collected from the retro-orbital sinus; plasma was obtained by centrifugation (4 000 rpm, at 4° C. for 15 min) and subsequently frozen and stored at −20° C. Tissues and livers were isolated and snap-frozen in liquid nitrogen and stored at −80° C. for subsequent analysis (gene expression and biochemistry) or fixed in 4% paraformaldehyde for histology.
Formalin-fixed liver tissue was processed, and 5-μm-thick paraffin sections were stained with Hematoxylin and Eosin. The histological analysis of stained liver sections was carried out in blind conditions to quantify liver steatosis and liver intralobular inflammation. Liver steatosis was scored from 0 to 3 as follows: 0 (very slightly affected), 1 (slightly affected), 2 (moderately affected), 3 (highly affected). Liver intralobular inflammation was also scored depending on the number of inflammatory foci counted by field of observation as follows: 0 (<1 focus/field), 1 (1 to 2 foci/field), 2 (2 to 4 foci/field) 3 (more than 4 foci/field).
Exemplary compounds of the General Formula (I) were tested in vivo in a high fat diet mice model. hApoE2 KI and hApoE2 KI/PPARalpha KO (“humanized” ApoE2 knock-in mice deficient for the mPPARalpha gene) were fed a Western diet and daily treated with the Cpd 29 at 30 mg/kg/day during 2 weeks. At the end of the protocol, liver steatosis and intra-lobular inflammation were evaluated in the control and treated mice by means of histological analysis and specific scores.

[2] = test system: hApoE2 KI/PPARalpha KO mice; assay: hApoE2 KI/PPARalpha KO mice on Western diet, hepatic lipid analysis (liver triglycerides); format: in vivo; conditions: 30 mg/kg/day by gavage, 6 weeks, FIG. 4D
Procedure: The compounds of the General Formula (I) were tested in vivo in a high fat diet mice model. Dyslipidemic “humanized” hApoE2 KI deficient for PPARalpha were fed a Western diet and treated during 6 weeks. The compounds of interest, including the Compound 29 of WO 2004/005233 at 30 mg/kg/day and the Compound 1 of WO 2007/147879 at 30 mg/kg/day were orally administrated by gavage. At the end of the protocol, animals were sacrificed, livers were harvested and the hepatic expression of relevant genes implicated in the liver inflammation and the fibrosis processes were evaluated by quantitative RT-PCR. In parallel, liver triglycerides contents were evaluated (Panels A-D). Statistical analysis was performed as indicated for FIG. 1.
as §1, with “Control animals were treated with vehicle only (Carboxymethlycellulose 1%+Tween-80 0.1%). Animals had access to food and water ad libitum.” left out
In another study, the liver-specific anti-inflammatory and anti-fibrotic properties effects of Cpd 29 and Compound 1 of WO 2007/147879 (Cpd 1) were evaluated in the hApoE2 KI/PPARalpha KO mice that were fed a Western diet and daily treated with the selected compounds during 6 weeks.

[3] = test system: ob/ob mice; assay: ob/ob mice, plasma ALAT after 26 days of treatment; format: in vivo; conditions: 26 days daily gavage; Cpd 29 30 mg/kg/day, Rosiglitazone 10 mg/kg/day; FIG. 2C
Procedure: The compounds of the General Formula (I) were tested in a murine model of type II diabetes, the ob/ob mice. […] After 26 days of treatment, animals were sacrificed and plasma samples and livers were harvested. Hepatic expression of genes that are known to be implicated in the liver inflammation process was evaluated and plasmatic levels of ALAT were measured (Panels A-C). Statistical analysis was performed using unpaired T-test with three p values that defines statistical relevance (* means p<0.05; ** means p<0.01; *** means p<0.001).
Male ob/ob mice (8 weeks of age) were purchased from Charles River (L'Arbresle, France) and were kept on a 12-hour light/dark cycle at a constant temperature of 20±3° C. After a 1 week acclimation, mice were separated in groups of 8 animals selected such that the distribution of their body weight and their 6 hours fasting glycemia determined before the experiment were uniform. Animals were fed a standard chow diet (R03, SAFE) and treated during 26 days with the compounds of interest. […] Control animals were treated with vehicle only (Carboxymethlycellulose 1%+Tween-80 0.1%). Animals had access to food and water ad libitum.
At the end of the studies, the animals were weighed and sacrificed under anesthesia. […]

[4] = test system: patients suffering from atherogenic dyslipidaemia and abdominal obesity; assay: First pilot double-blind placebo-controlled randomized study, Cpd 29 80 mg/day, 28 days; format: in vivo, human; conditions: 80 mg/day oral
Procedure: 1-[4-methylthiophenyl]-3-[3,5-dimethyl-4-carboxydimethylmethyloxyphenyl]prop-2-en-1-one (Cpd 29 of WO 2004/005233) has been formulated as hard shell capsules containing 5, 10 or 20 mg of the compound. The compound (80 mg) was administered orally once daily for 28 days. The study has been performed in two parallel groups in double-blind conditions: placebo or Cpd 29 of WO 2004/005233.
The tolerability and safety of once-a-day administrations, as well as the efficacy in improving plasma lipids and glucose homeostasis compared with placebo, were evaluated in two pilot trials using relevant biochemical parameters. The data were used to calculate the percentage of change due to the compound when compared to the placebo after 28 days of treatment.
A first pilot, double-blind, placebo controlled, randomized study has been performed in patients suffering from atherogenic dyslipidaemia and abdominal obesity for assessing the tolerability and safety of once-a-day administrations of oral doses of Cpd 29 of WO 2004/005233 (at the dose of 80 mg/day), as well as the efficacy on plasma triglycerides and HDL-cholesterol (primary objectives).

[5] = relative to the placebo group, p<0.01

Substance: 1-[4-methylthiophenyl]-3-[3,5-dimethyl-4-carboxydimethylmethyloxyphenyl]prop-2-en-1-one [Cpd 29]
- development of liver inflammation induced by the diet ([1]; hApoE2 KI mice, Western diet): inhibits
- development of liver steatosis induced by the diet ([1]; hApoE2 KI mice, Western diet): inhibits
- Liver Inflammation (score) 0 ([1]; share of group with score 0 (<1 focus/field), hApoE2 KI): 100%
- Liver Steatosis (score) 0 ([1]; share of group with score 0 (very slightly affected), hApoE2 KI): 83%
- Liver Inflammation (score) 1 ([1]; share of group with score 1 (1 to 2 foci/field), hApoE2 KI): 0%
- Liver Steatosis (score) 1 ([1]; share of group with score 1 (slightly affected), hApoE2 KI): 17%
- Liver Inflammation (score) 2 ([1]; share of group with score 2 (2 to 4 foci/field), hApoE2 KI): 0%
- Liver Steatosis (score) 2 ([1]; share of group with score 2 (moderately affected), hApoE2 KI): 0%
- Liver Steatosis (score) 3 ([1]; share of group with score 3 (highly affected), hApoE2 KI): 0%
- Liver Inflammation (score) 3 ([1]; share of group with score 3 (more than 4 foci/field), hApoE2 KI): 0%
- triglycerides accumulation in the liver [2]: prevented
- plasmatic levels of ALAT [3]: statistically significant decrease
- effect on Homocystein (cardiovascular risk factor) [4]: lack of effect
- reduction of Gamma Glutamyl transpeptidase level ([4]; p<0.001): 23%
- liver acute phase inflammation marker fibrinogen ([4]; p<0.01): reduction
- liver acute phase inflammation marker haptoglobin ([4]; p<0.01): reduction
- reduction of Alanine aminotransferase level ([4]; p<0.01): 13%
- increase in good cholesterol (HDL-C) level [4, 5]: 9%
- reduction of plasma triglycerides [4, 5]: 21%
